Read-outs that look alike come from different tables or passages of the source. Starred links: 1 amine or outer side, 2 acyl side, 3 side chain; linkers in the order of their positions; H or OH if unused. Positions of bridges follow the written chain, without caps; N, C: chain ends. Non-standard residues stand in square brackets, D forms with d. Residues, ends and D or L forms follow the SMILES beside them. *: point of attachment. X16 = NC(=O)[C@H](CCCCNC(=O)CN1CCN(CC(=O)O)CCN(CC(=O)O)CCN(CC(=O)O)CC1)NC(=O)CCC(=O)NCCCOCCOCCOCCCN*; DOTA = O=C(O)CN1CCN(CC(=O)O)CCN(CC(=O)*)CCN(CC(=O)O)CC1; mXylylene = c1cc(C[*:1])cc(C[*:2])c1; Trx = NC[C@H]1CC[C@H](C(=O)O)CC1; tBuAla = CC(C)(C)C[C@H](N)C(=O)O; X1 = O=C(CN1CCN([*:1])CC1)[*:2]; Ac6c = NC1(C(=O)O)CCCCC1; Dap = NC[C@H](N)C(=O)O; Nlys = NCCCCNCC(=O)O
Experiments:
[1] = target: T1, CAIX-expressing human HT-29 colorectal cancer cells (Homo sapiens, UniProt Q16790); experiment: FACS binding assay (IC50 determination, competition with tracer 3BP-2776 or 3BP-4149); settings: 4° C., 1 hour, read-out: pIC50 category (activity) (converted)
T1 construct: CAIX-expressing human HT-29 colorectal cancer cells; host or cells: HT-29 human colorectal cancer cells
Outline: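 HT-29 cells in FACS buffer (PBS, 1% FCS) at 500.000 cells/ml were exposed to compounds competing with a labelled tracer, with biotinylated compounds detected by 1 μg/mL APC-streptavidin for 30 min on ice. APC/Cy5 median fluorescence was read by flow cytometry and IC50 derived by 4PL fit.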

NEP = target: T2, NEP (Homo sapiens, UniProt P08473); experiment: Proteolytic stability assay against NEP; assay type: in vitro ADME; settings: human, recombinant soluble human NEP, 100 ng/mL NEP, 10 μM compound, 37°C, read-out: % intact compound remaining after 24 h incubation
T2 construct: Recombinant soluble human NEP; purchased BioTechne, Wiesbaden, Germany
T2 sequence (P08473 52-750 limits assumed): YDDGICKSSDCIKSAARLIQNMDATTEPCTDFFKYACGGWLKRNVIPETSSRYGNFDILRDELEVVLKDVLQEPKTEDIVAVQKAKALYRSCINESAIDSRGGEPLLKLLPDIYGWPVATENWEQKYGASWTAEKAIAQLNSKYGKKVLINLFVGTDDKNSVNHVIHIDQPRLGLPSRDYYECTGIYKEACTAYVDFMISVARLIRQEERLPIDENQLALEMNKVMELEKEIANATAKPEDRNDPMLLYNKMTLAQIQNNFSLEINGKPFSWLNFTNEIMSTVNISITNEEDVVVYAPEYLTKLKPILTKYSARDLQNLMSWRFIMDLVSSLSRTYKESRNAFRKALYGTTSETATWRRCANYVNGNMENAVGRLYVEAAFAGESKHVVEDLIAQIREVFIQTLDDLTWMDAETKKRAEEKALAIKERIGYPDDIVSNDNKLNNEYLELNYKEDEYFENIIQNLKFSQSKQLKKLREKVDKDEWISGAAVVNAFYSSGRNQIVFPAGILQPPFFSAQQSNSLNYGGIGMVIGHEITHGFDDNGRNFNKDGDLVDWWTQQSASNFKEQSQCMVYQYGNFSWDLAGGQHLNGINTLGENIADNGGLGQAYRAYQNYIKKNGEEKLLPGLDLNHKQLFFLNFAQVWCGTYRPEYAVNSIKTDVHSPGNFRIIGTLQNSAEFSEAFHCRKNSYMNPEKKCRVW
Description: To assess the stability of compounds against NEP, the compounds were subjected to an in vitro assay based on the protocol described by Edelson et al. (Edelson et al., Pulmonary pharmacology & therapeutics, 2013, 26, 229-238).
Recombinant soluble human NEP (BioTechne, Wiesbaden, Germany) at a concentration of 100 ng/mL was mixed with the compound (10 μM) and a stable internal standard (10 μM) and incubated at 37° C. After several time points, samples were taken and analyzed with LC-MS.
The activity of NEP was examined using a commercially available chromogenic substrate of NEP.

[2] = Plasma stability assay, mouse plasma; settings: for remaining at 4 h, […]: mouse, plasma (K2EDTA); for % intact compound remaining (incubation time): mouse plasma, 37°C, 24 h
[3] = target: T3, human carbonic anhydrase IX (hCAIX-Fc) (Homo sapiens, UniProt Q16790); experiment: Surface plasmon resonance assay with hCAIX-Fc; assay type: binding; settings: 25° C.; for t1/2 category (activity): SPR dissociation half-life, hCAIX-Fc; for Kd: SPR, hCAIX-Fc captured, read-out: pKD category (activity) (converted)
T3 construct: purchased SinoBliological (Sino Biological) 10107-H02H

[4] = FACS competition on HT-29 cells, Tracer ID 3BP-2776 (10 nM, biotin-labeled)
[5] = FACS binding assay, HT-29 cells, competition with tracer 3BP-2776 (10 nM, biotin-labeled)

Row | Compound | IC50 [1, 4] [nM] | remaining at 24 h, 10 μM (NEP) [%] | remaining at 4 h, […] [2] [%] | t1/2 category (activity) [3] | Kd [3] [nM] | IC50 [1, 5] [nM] | % intact compound remaining (incubation time) [2] [%] | IC50 ([1]; FACS binding assay, HT-29 cells, competition with tracer 3BP-4149 (3 nM, Cy5-labeled)) [nM]
1 | CC(=O)N[C@H](C(=O)N[C@@H](Cc1ccc(O)cc1)C(=O)N[C@H]1CSCc2cccc(c2)CSC[C@@H](C(N)=O)NC(=O)[C@H](CCC(N)=O)NC(=O)[C@H](Cc2c[nH]c3ccccc23)NC(=O)[C@H]([C@@H](C)O)NC(=O)[C@H](CC(C)C)NC(=O)[C@H](Cc2c[nH]c3ccccc23)NC(=O)[C@H](CC(=O)O)NC(=O)CNC(=O)[C@H](CCC(=O)O)NC1=O)C(C)C [3BP-2837] (Ac-VYCEGDWLTWQC-NH2; linker 3-12 via mXylylene) | < 10 | > 95 | > 95 | – | – | – | – | –
2 | CC(=O)N[C@H](C(=O)N[C@@H](Cc1ccc(O)cc1)C(=O)N[C@H]1CSCc2cccc(c2)CSC[C@@H](C(=O)NCCCOCCOCCOCCCNC(=O)CCC(=O)N[C@@H](CCCCNC(=O)CN2CCN(CC(=O)O)CCN(CC(=O)O)CCN(CC(=O)O)CC2)C(N)=O)NC(=O)[C@H](CCC(N)=O)NC(=O)[C@H](Cc2c[nH]c3ccccc23)NC(=O)[C@H]([C@@H](C)O)NC(=O)[C@H](CC(C)C)NC(=O)[C@H](Cc2c[nH]c3ccccc23)NC(=O)[C@H](CC(=O)O)NC(=O)CNC(=O)[C@H](CCC(=O)O)NC1=O)C(C)C [3BP-2949] (Ac-VYCEGDWLTWQC-X16; linker 3-12 via mXylylene; N-terminus and C-terminus assumed) | – | 82 | 95 | – | – | – | – | –
3 | CC(=O)N[C@H](C(=O)N[C@@H](Cc1ccc(O)cc1)C(=O)N[C@H]1CSCc2cccc(c2)CSC[C@@H](C(N)=O)NC(=O)[C@H](C)NC(=O)[C@H](Cc2c[nH]c3ccccc23)NC(=O)[C@H]([C@@H](C)O)NC(=O)[C@H](CC(C)C)NC(=O)[C@H](Cc2c[nH]c3ccccc23)NC(=O)[C@H](CC(=O)O)NC(=O)CNC(=O)[C@H](CCC(=O)O)NC1=O)C(C)C [3BP-3058] (Ac-VYCEGDWLTWAC-NH2; linker 3-12 via mXylylene) | < 10 | > 95 | 95 | C (t1/2 between 2.1 and 5.0 minutes) | < 10 | – | – | –
4 | CC(=O)N[C@H](C(=O)N[C@@H](Cc1ccc(O)cc1)C(=O)N[C@H]1CSCc2cccc(c2)CSC[C@@H](C(N)=O)NC(=O)[C@H](C)NC(=O)[C@H](Cc2c[nH]c3ccccc23)NC(=O)[C@H]([C@@H](C)O)NC(=O)[C@H](CC(C)C)NC(=O)[C@H](Cc2c[nH]c3ccccc23)NC(=O)[C@H](CC(=O)O)NC(=O)[C@H]2CCCN2C(=O)[C@H](CCC(=O)O)NC1=O)C(C)C [3BP-3282] (Ac-VYCE[dP]DWLTWAC-NH2; linker 3-12 via mXylylene) | < 10 | > 95 | – | A (t1/2>15.0 minutes) | < 10 | – | – | –
5 | CC(=O)N[C@H](C(=O)N[C@@H](Cc1ccc(O)cc1)C(=O)N[C@H]1CSCc2cccc(c2)CSC[C@@H](C(N)=O)NC(=O)[C@H](CO)NC(=O)[C@H](Cc2c[nH]c3ccccc23)NC(=O)[C@H]([C@@H](C)O)NC(=O)[C@H](CC(C)(C)C)NC(=O)[C@H](Cc2c[nH]c3ccccc23)NC(=O)[C@H](CC(=O)O)NC(=O)[C@H]2CCCN2C(=O)[C@H](CCC(=O)O)NC1=O)C(C)C [3BP-3491] (Ac-VYCE[dP]DW[tBuAla]TWSC-NH2; linker 3-12 via mXylylene) | < 10 | > 95 | > 95 | – | – | – | – | –
6 | CC(=O)N[C@H](C(=O)N[C@@H](Cc1ccc(O)cc1)C(=O)N[C@H]1CSCc2cccc(c2)CSC[C@@H](C(N)=O)NC(=O)[C@H](C)NC(=O)[C@H](Cc2c[nH]c3ccccc23)NC(=O)[C@H]([C@@H](C)O)NC(=O)C2(CCCCC2)NC(=O)[C@H](Cc2c[nH]c3ccccc23)NC(=O)[C@H](CC(=O)O)NC(=O)[C@H]2CCCN2C(=O)[C@H](CCC(=O)O)NC1=O)C(C)C [3BP-3503] (Ac-VYCE[dP]DW[Ac6c]TWAC-NH2; linker 3-12 via mXylylene) | < 10 | > 95 | > 95 | – | – | – | – | –
7 | CC(=O)N[C@H](C(=O)N[C@@H](Cc1ccc(O)cc1)C(=O)N[C@H]1CSCc2cccc(c2)CSC[C@@H](C(N)=O)NC(=O)[C@H](C)NC(=O)[C@H](Cc2c[nH]c3ccccc23)NC(=O)[C@H]([C@@H](C)O)NC(=O)[C@H](CC(C)C)NC(=O)[C@H](Cc2c[nH]c3ccccc23)NC(=O)[C@H](CC(=O)O)NC(=O)CN(CCCCNC(=O)CN2CCN(CC(=O)O)CCN(CC(=O)O)CCN(CC(=O)O)CC2)C(=O)[C@H](CCC(=O)O)NC1=O)C(C)C [3BP-3562, Ac-Val-Tyr-[Cys(3MeBn)-Glu-Nlys(DOTA)-Asp-Trp-Leu-Thr-Trp-Ala-Cys]-NH2] (Ac-VYCE[Nlys](DOTA)DWLTWAC-NH2; linker 3-12 via mXylylene) | < 10 | > 95 | 89 | – | < 10 | – | – | –
8 | CC(C)C[C@@H]1NC(=O)[C@H](Cc2c[nH]c3ccccc23)NC(=O)[C@H](CC(=O)O)NC(=O)[C@H]2CCCN2C(=O)[C@H](CCC(=O)O)NC(=O)[C@@H]2CSCc3cccc(c3)CSC[C@@H](C(N)=O)NC(=O)[C@H](CNC(=O)C[C@H](NC(=O)CN3CCN(CC(=O)O)CCN(CC(=O)O)CCN(CC(=O)O)CC3)C(=O)N2)NC(=O)[C@H](Cc2c[nH]c3ccccc23)NC(=O)[C@H]([C@@H](C)O)NC1=O [3BP-4253] ({DOTA}-DCE[dP]DWLTW[Dap]C-NH2; lactam 1-10; linker 2-11 via mXylylene) | – | – | – | B (t1/2 between 5.1 and 15.0 minutes) | < 10 | < 10 | >95 | –
9 | CC(C)C[C@@H]1NC(=O)[C@H](Cc2c[nH]c3ccccc23)NC(=O)[C@H](CC(=O)O)NC(=O)[C@H]2CCCN2C(=O)[C@H](CCC(=O)O)NC(=O)[C@@H]2CSCc3cccc(c3)CSC[C@@H](C(N)=O)NC(=O)[C@H](CNC(=O)C[C@H](NC(=O)CN3CCN(C(=O)CN4CCN(CC(=O)O)CCN(CC(=O)O)CCN(CC(=O)O)CC4)CC3)C(=O)N2)NC(=O)[C@H](Cc2c[nH]c3ccccc23)NC(=O)[C@H]([C@@H](C)O)NC1=O [3BP-4255] ({DOTA}-[X1]DCE[dP]DWLTW[Dap]C-NH2; lactam 2-11; linker 3-12 via mXylylene) | – | – | – | D (t1/2≤2.0 minutes) | < 10 | < 10 | 81 | –
10 | CC(C)C[C@@H]1NC(=O)[C@H](Cc2c[nH]c3ccccc23)NC(=O)[C@H](CC(=O)O)NC(=O)[C@H]2CCCN2C(=O)[C@H](CCC(=O)O)NC(=O)[C@@H]2CSCc3cccc(c3)CSC[C@@H](C(N)=O)NC(=O)[C@H](CNC(=O)C[C@H](NC(=O)[C@H](CO)NC(=O)CN3CCN(CC(=O)O)CCN(CC(=O)O)CCN(CC(=O)O)CC3)C(=O)N2)NC(=O)[C@H](Cc2c[nH]c3ccccc23)NC(=O)[C@H]([C@@H](C)O)NC1=O [3BP-4257] ({DOTA}-SDCE[dP]DWLTW[Dap]C-NH2; lactam 2-11; linker 3-12 via mXylylene) | – | – | – | C (t1/2 between 2.1 and 5.0 minutes) | < 10 | < 10 | 94 | –
11 | CC(C)C[C@@H]1NC(=O)[C@H](Cc2c[nH]c3ccccc23)NC(=O)[C@H](CC(=O)O)NC(=O)[C@H]2CCCN2C(=O)[C@H](CCC(=O)O)NC(=O)[C@@H]2CSCc3cccc(c3)CSC[C@@H](C(N)=O)NC(=O)[C@H](CNC(=O)C[C@H](NC(=O)[C@H]3CC[C@H](CNC(=O)CN4CCN(CC(=O)O)CCN(CC(=O)O)CCN(CC(=O)O)CC4)CC3)C(=O)N2)NC(=O)[C@H](Cc2c[nH]c3ccccc23)NC(=O)[C@H]([C@@H](C)O)NC1=O [3BP-4258] ({DOTA-Trx}-DCE[dP]DWLTW[Dap]C-NH2; lactam 1-10; linker 2-11 via mXylylene) | – | – | – | C (t1/2 between 2.1 and 5.0 minutes) | < 10 | < 10 | 93 | –
12 | CC(C)C[C@@H]1NC(=O)[C@H](Cc2c[nH]c3ccccc23)NC(=O)[C@H](CC(=O)O)NC(=O)[C@H]2CCCN2C(=O)[C@H](CCC(=O)O)NC(=O)[C@@H]2CSCc3cccc(c3)CSC[C@@H](C(N)=O)NC(=O)[C@H](CNC(=O)C[C@H](NC(=O)[C@@H](NC(=O)CN3CCN(CC(=O)O)CCN(CC(=O)O)CCN(CC(=O)O)CC3)C(C)C)C(=O)N2)NC(=O)[C@H](Cc2c[nH]c3ccccc23)NC(=O)[C@H]([C@@H](C)O)NC1=O [3BP-4264] ({DOTA}-VDCE[dP]DWLTW[Dap]C-NH2; lactam 2-11; linker 3-12 via mXylylene) | – | – | – | A (t1/2>15.0 minutes) | < 10 | – | >95 | < 10

— patent US20250339569A1, “CARBONIC ANHYDRASE IX LIGANDS” (priority 2021, published 2025)
